Data: US6914045B2, “Glycopeptide antibiotics” (Wyeth Holdings Corporation, priority 2001, dated 2005)
Values after ≈ are worked out from the molar mass of the structure shown.

Legend:
Test in all cases: in vitro antibacterial evaluation, MIC by broth dilution
Format in all cases: cell-based
Staphylococcus sp. = settings: broth dilution, 18 hours at 35° C.
Procedure, shortened: (§1)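 Test organisms, which included recent clinical isolates resistant to methicillin, penicillin and/or vancomycin, were inoculated at 5×10^5 CFU/mL into Muller-Hinton II […] containing antibiotic at 64-0.06 μg/mL. Minimum inhibitory concentrations were then read as the lowest level inhibiting growth.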

Escherichia coli = settings: 18 hours at 35° C.
Procedure, shortened: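 Inoculum 5×10^5 CFU/mL; concentrations 64 to 0.06 μg/mL; MIC defined as lowest inhibitory level. Conducted by broth dilution under NCCLS guidelines.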

Enterococcus sp. = settings: broth dilution, 18 hours at 35° C.
Procedure, shortened: as §1

Streptococcus sp. = settings: broth dilution, 18 hours at 35° C.
Procedure, shortened: as §1

- MIC Coagulase Negative Staphylococcus (GC 4547) (Staphylococcus sp.): 8 mg/L (≈ 5.72 µM)
- MIC Coagulase Negative Staphylococcus (GC 4548) (Staphylococcus sp.): 4 mg/L (≈ 2.86 µM)
- MIC Coagulase Negative Staphylococcus (GC 4549) (Staphylococcus sp.): 4 mg/L (≈ 2.86 µM)
- MIC Coagulase Negative Staphylococcus (GC 4551) (Staphylococcus sp.): 16 mg/L (≈ 11.4 µM)
- MIC Staphylococcus aureus (ATCC 29213) (Staphylococcus sp.): 16 mg/L (≈ 11.4 µM)
- MIC Staphylococcus aureus (GC 1131) (Staphylococcus sp.): 16 mg/L (≈ 11.4 µM)
- MIC Staphylococcus aureus (GC 4541) (Staphylococcus sp.): 16 mg/L (≈ 11.4 µM)
- MIC Staphylococcus aureus (GC 4542) (Staphylococcus sp.): 16 mg/L (≈ 11.4 µM)
- MIC Staphylococcus aureus (GC 4544) (Staphylococcus sp.): 8 mg/L (≈ 5.72 µM)
- MIC Staphylococcus aureus (GC 4545) (Staphylococcus sp.): 8 mg/L (≈ 5.72 µM)
- MIC Staphylococcus aureus-SMITH (GC 4543) (Staphylococcus sp.): 8 mg/L (≈ 5.72 µM)
- MIC Staphylococcus aureus (ATCC 29213) (Staphylococcus sp.; strain ATCC 29213): 16 mg/L (≈ 11.4 µM)
- MIC Staphylococcus aureus (GC 1131) (Staphylococcus sp.; strain GC 1131): 16 mg/L (≈ 11.4 µM)
- MIC Staphylococcus aureus (GC 4541) (Staphylococcus sp.; strain GC 4541): 16 mg/L (≈ 11.4 µM)
- MIC Staphylococcus aureus (GC 4542) (Staphylococcus sp.; strain GC 4542): 16 mg/L (≈ 11.4 µM)
- MIC Staphylococcus aureus (GC 4544) (Staphylococcus sp.; strain GC 4544): 8 mg/L (≈ 5.72 µM)
- MIC Staphylococcus aureus (GC 4545) (Staphylococcus sp.; strain GC 4545): 8 mg/L (≈ 5.72 µM)
- MIC Coagulase Negative Staphylococcus (GC 4547) (Staphylococcus sp.; strain GC 4547): 8 mg/L (≈ 5.72 µM)
- MIC Coagulase Negative Staphylococcus (GC 4548) (Staphylococcus sp.; strain GC 4548): 4 mg/L (≈ 2.86 µM)
- MIC Coagulase Negative Staphylococcus (GC 4549) (Staphylococcus sp.; strain GC 4549): 4 mg/L (≈ 2.86 µM)
- MIC Coagulase Negative Staphylococcus (GC 4551) (Staphylococcus sp.; strain GC 4551): 16 mg/L (≈ 11.4 µM)
- MIC Staphylococcus aureus-SMITH (GC 4543) (Staphylococcus sp.; strain SMITH GC 4543): 8 mg/L (≈ 5.72 µM)
- MIC Escherichia coli (ATCC 25922) (Escherichia coli; Escherichia coli (ATCC 25922)): 64 mg/L (≈ 45.8 µM)
- MIC Escherichia coli (GC 4559) (Escherichia coli; Escherichia coli (GC 4559)): >64 mg/L
- MIC Escherichia coli (GC 4560) (Escherichia coli; Escherichia coli (GC 4560)): 4 mg/L (≈ 2.86 µM)
- MIC Enterococcus avium (GC 4558) (Enterococcus sp.; Enterococcus avium (GC 4558)): >64 mg/L
- MIC Enterococcus faecalis (ATCC 29212) (Enterococcus sp.; Enterococcus faecalis (ATCC 29212)): 64 mg/L (≈ 45.8 µM)
- MIC Enterococcus faecalis (GC 4553) (Enterococcus sp.; Enterococcus faecalis (GC 4553)): >64 mg/L
- MIC Enterococcus faecalis (GC 4554) (Enterococcus sp.; Enterococcus faecalis (GC 4554)): >64 mg/L
- MIC Enterococcus faecium (GC 2243) (Enterococcus sp.; Enterococcus faecium (GC 2243)): >64 mg/L
- MIC Enterococcus faecium (GC 4556) (Enterococcus sp.; Enterococcus faecium (GC 4556)): 64 mg/L (≈ 45.8 µM)
- MIC Enterococcus faecium (GC 4557) (Enterococcus sp.; Enterococcus faecium (GC 4557)): 32 mg/L (≈ 22.9 µM)
- MIC Enterococcus faecalis (ATCC 29212) (Enterococcus sp.; strain ATCC 29212): 64 mg/L (≈ 45.8 µM)
- MIC Enterococcus faecalis (GC 2242) (Enterococcus sp.; strain GC 2242): 64 mg/L (≈ 45.8 µM)
- MIC Enterococcus faecium (GC 2243) (Enterococcus sp.; strain GC 2243): >64 mg/L
- MIC Enterococcus faecalis (GC 4552) (Enterococcus sp.; strain GC 4552): >64 mg/L
- MIC Enterococcus faecalis (GC 4553) (Enterococcus sp.; strain GC 4553): >64 mg/L
- MIC Enterococcus faecalis (GC 4554) (Enterococcus sp.; strain GC 4554): >64 mg/L
- MIC Enterococcus faecium (GC 4556) (Enterococcus sp.; strain GC 4556): 64 mg/L (≈ 45.8 µM)
- MIC Enterococcus faecium (GC 4557) (Enterococcus sp.; strain GC 4557): 32 mg/L (≈ 22.9 µM)
- MIC Enterococcus avium (GC 4558) (Enterococcus sp.; strain GC 4558): >64 mg/L
- MIC Streptococcus agalactiae (GC 4564) (Streptococcus sp.; strain GC 4564): 8 mg/L (≈ 5.72 µM)
- MIC Streptococcus pyogenes (ID-3187) (Streptococcus sp.; strain ID-3187): 4 mg/L (≈ 2.86 µM)
SMILES: CC(C)CC(=O)OC1C(OC2C(CO)OC(Oc3ccc(CC4NC(=O)C(C(C)c5cccc(F)c5)NC(=O)CNC(=O)C(CO)NC(=O)C(C(O)C5CNC(=N)N5C5OC(CO)C(O)C(O)C5O)NC(=O)C(C(O)C5CNC(=N)N5)NC4=O)cc3)C(O)C2O)OC(CO)C(O)C1O (stereo not drawn) [Example 264a, Cyclo[glycyl-3-fluoro-β-methylphenylalanyl-O-[4-O-[2-O-(3-methylbutanoyl)hexopyranosyl]-hexopyranosyl]tyrosyl-3-(2-iminoimidazolidin-4-yl)seryl-3-(3-hexopyranosyl-2-iminoimidazolidin-4-yl)serylseryl]]
- MIC Staphylococcus haemolyticus (GC 4546) (Staphylococcus sp.): 8 mg/L (≈ 5.72 µM)
- MIC Staphylococcus haemolyticus (GC 4546) (Staphylococcus sp.; strain GC 4546): 8 mg/L (≈ 5.72 µM)
